We go through 31 compounds from US10300071B2, “Compositions and methods for inhibition of mycobacteria” (priority 2014, dated 2019).

Values after ≈ are worked out from the molar mass of the structure shown. Read-outs that look alike come from different tables or passages of the source. A value given as a limit tells only on which side of the number the result lay.

Data set [1] addresses Mtb AccD6 (Mycobacterium tuberculosis, UniProt P9WQH5). The data set is described as follows: biochemical. Conditions: for IC50: 300 μM malonyl-CoA, inhibitor 10 μM to 2000 μM; for Mtb AccD6 inhibition: preliminary studies of commercially available herbicides. Type of data set: biochemical.
The subject of data set [2] is human fibroblast.
Data set [3] relates to Mtb strain mc^2-7000. The data set is described as follows: microbe, parasite or virus in culture. Conditions: for MIC: 6 days incubation at 37° C., resazurin, read on the 7th day; for whole Mycobacterium tuberculosis cell inhibition: preliminary studies of commercially available herbicides. In kind it is cell-based, Mycobacterium tuberculosis. (The colour change of resazurin is a common sign of viable cells or microbes.)

Data set [4] concerns S. cerevisiae.
Setting [5] is: Mycobacterium tuberculosis, 144 h, read-out: MIC.

Mtb AccD6, sequence (P9WQH5 whole entry, looked up): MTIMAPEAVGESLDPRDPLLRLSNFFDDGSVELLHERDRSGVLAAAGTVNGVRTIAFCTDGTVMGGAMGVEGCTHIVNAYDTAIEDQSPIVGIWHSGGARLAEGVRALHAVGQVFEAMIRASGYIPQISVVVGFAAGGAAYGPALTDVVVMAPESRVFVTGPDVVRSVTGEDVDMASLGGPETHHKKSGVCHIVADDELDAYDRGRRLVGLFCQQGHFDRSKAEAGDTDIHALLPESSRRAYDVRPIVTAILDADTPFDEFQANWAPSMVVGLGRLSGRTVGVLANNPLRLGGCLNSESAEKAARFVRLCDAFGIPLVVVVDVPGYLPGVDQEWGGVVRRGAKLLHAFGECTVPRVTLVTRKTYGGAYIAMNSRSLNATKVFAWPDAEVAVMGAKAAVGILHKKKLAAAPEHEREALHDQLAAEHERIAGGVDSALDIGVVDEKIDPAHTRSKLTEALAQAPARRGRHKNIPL

For `COC(=O)COc1ccc(Oc2nc3ccc(F)cc3s2)cc1` [NZ-303, methyl 2-{4-[(6-fluoro-1,3-benzothiazol-2-yl)oxy]phenoxy}acetate], in data set [1] (read-out: inhibition at 20 uM), the inhibition at 20 µM was 50%. For the same compound, the “concentrations at which not toxic, human fibroblast cytotoxicity” value in data set [2] is no less than 100 µM. In addition, the MIC in data set [3] (setting [5]) came to 4.5 µM.
As for `CONC(=O)C(O)c1ccc(Oc2nc3ccc(Cl)cc3s2)cc1` (stereo not shown) [NZ-338, 2-{4-[(6-chloro-1,3-benzothiazol-2-yl)oxy]phenyl}-2-hydroxy-N-methoxyacetamide], the IC50 in data set [1] (read-out: IC50) is 7200 nM. Further, the “concentrations at which not toxic, human fibroblast cytotoxicity” value in data set [2] is no less than 100 µM. Besides, the MIC in data set [3] (setting [5]) was 25 µM (≈ 9.12 µg/mL).
The like results for `CN(C)C(=O)Nc1ccc(Oc2cnc3cc(Cl)ccc3n2)cc1` [NZ-343, 1-{4-[(6-chloroquinoxalin-2-yl)oxy]phenyl}-3,3-dimethylurea] were, in that order, 400 nM, no less than 100 µM and 25 µM (≈ 8.57 µg/mL).
In the same order, the values of `CC(C)NC(=O)Nc1ccc(Oc2cnc3cc(F)ccc3n2)cc1` [NZ-345, 1-{4-[(6-fluoroquinoxalin-2-yl)oxy]phenyl}-3-(propan-2-yl)urea] are 500 nM, no less than 100 µM and 25 µM (≈ 8.51 µg/mL).
On to `CC(C)NC(=O)Nc1ccc(Oc2ccc3cc(Cl)ccc3n2)cc1` [NZ-346, 1-{4-[(6-chloroquinolin-2-yl)oxy]phenyl}-3-(propan-2-yl)urea], for which, in data set [1] (read-out: IC50), the IC50 stood at 400 nM. Further, the “concentrations at which not toxic, human fibroblast cytotoxicity” value in data set [2] is no less than 100 µM. Besides, in data set [3] (setting [5]), the MIC was 50 µM (≈ 17.8 µg/mL).
As for `CC(C)(C)OC(=O)NCc1ccc(Oc2nc3ccc(Cl)cc3s2)cc1` [NZ-347, tert-butyl N-({4-[(6-chloro-1,3-benzothiazol-2-yl)oxy]phenyl}methyl)carbamate], the IC50 entry in data set [1] is reported as “Not Active”. Also, the “concentrations at which not toxic, s. cerevisiae cytotoxicity” value in data set [4] was no less than 100 µM. Also, in data set [3] (setting [5]), the MIC stood at 15 µM (≈ 5.86 µg/mL).
In the same order, the values of `NCc1ccc(Oc2nc3ccc(Cl)cc3s2)cc1` [NZ-348, {4-[(6-chloro-1,3-benzothiazol-2-yl)oxy]phenyl}methanamine] are “Not Active”, 25 to 50 µM and 2 µM (≈ 0.582 µg/mL).
Consider `CN(C)C(=O)NCc1ccc(Oc2nc3ccc(Cl)cc3s2)cc1` [NZ-349, 1-({4-[(6-chloro-1,3-benzothiazol-2-yl)oxy]phenyl}methyl)-3,3-dimethylurea], for which the IC50 in data set [1] (read-out: IC50) amounted to 7000 nM. For the same compound, the “concentrations at which not toxic, s. cerevisiae cytotoxicity” value in data set [4] is no less than 100 µM. Besides, the MIC in data set [3] (setting [5]) was determined as 8 µM (≈ 2.89 µg/mL).
As to `CNC(=O)NCc1ccc(Oc2nc3ccc(Cl)cc3s2)cc1` [NZ-350, 1-({4-[(6-chloro-1,3-benzothiazol-2-yl)oxy]phenyl}methyl)-3-methylurea], the IC50 in data set [1] (read-out: IC50) came to 1600 nM. Also, the “concentrations at which not toxic, s. cerevisiae cytotoxicity” value in data set [4] is no less than 100 µM. Moreover, the MIC result in data set [3] was “Not Active”.
On to `CC(C)(C)OC(=O)Nc1ccc(Oc2nc3ccc(Cl)cc3s2)cc1` [NZ-351, tert-butyl N-{4-[(6-chloro-1,3-benzothiazol-2-yl)oxy]phenyl}carbamate], for which the IC50 entry in data set [1] is “Not Active”. Besides, the “concentrations at which not toxic, s. cerevisiae cytotoxicity” value in data set [4] was no less than 100 µM. For the same compound, the MIC entry in data set [3] is listed as “Not Active”.
Turning to `Nc1ccc(Oc2nc3ccc(Cl)cc3s2)cc1` [NZ-352, 4-[(6-chloro-1,3-benzothiazol-2-yl)oxy]aniline], the IC50 result in data set [1] is listed as “Not Active”. Moreover, the “concentrations at which not toxic, s. cerevisiae cytotoxicity” value in data set [4] is 25 to 50 µM. For the same compound, the MIC in data set [3] (setting [5]) is 1.5 µM (≈ 0.415 µg/mL).
For the compound `CNC(=O)Nc1ccc(Oc2nc3ccc(Cl)cc3s2)cc1` [NZ-353, 1-{4-[(6-chloro-1,3-benzothiazol-2-yl)oxy]phenyl}-3-methylurea], in data set [1] (read-out: IC50), the IC50 came out at 4000 nM. Moreover, the “concentrations at which not toxic, s. cerevisiae cytotoxicity” value in data set [4] was no less than 100 µM. Further, the MIC result in data set [3] is “Not Active”.
As for `CN(C)C(=O)Nc1ccc(Oc2nc3ccc(Cl)cc3s2)cc1` [NZ-354, 1-{4-[(6-chloro-1,3-benzothiazol-2-yl)oxy]phenyl}-3,3-dimethylurea], the IC50 in data set [1] (read-out: IC50) is 7300 nM. Besides, the “concentrations at which not toxic, s. cerevisiae cytotoxicity” value in data set [4] lay in the range of 50 to 100 µM. Moreover, in data set [3] (setting [5]), the MIC was determined as 1 µM (≈ 0.348 µg/mL).
The like results for `COC(=O)C(OC)c1ccc(Oc2nc3ccc(Cl)cc3s2)cc1` (stereo not shown) [NZ-355, methyl 2-{4-[(6-chloro-1,3-benzothiazol-2-yl)oxy]phenyl}-2-methoxyacetate] were, in that order, 20000 nM, no less than 100 µM and 4.5 µM (≈ 1.64 µg/mL).
The like results for `COC(C(=O)O)c1ccc(Oc2nc3ccc(Cl)cc3s2)cc1` (stereo not shown) [NZ-356, 2-{4-[(6-chloro-1,3-benzothiazol-2-yl)oxy]phenyl}-2-methoxyacetic acid] were, in that order, 1700 nM, no less than 100 µM and 25 µM (≈ 8.74 µg/mL).
In the case of `CONC(=O)C(OC)c1ccc(Oc2nc3ccc(Cl)cc3s2)cc1` (stereo not shown) [NZ-357, 2-{4-[(6-chloro-1,3-benzothiazol-2-yl)oxy]phenyl}-N,2-dimethoxyacetamide], the IC50 in data set [1] (read-out: IC50) is 3600 nM. Further, in data set [4], the “concentrations at which not toxic, s. cerevisiae cytotoxicity” value is no less than 100 µM. Further, the MIC in data set [3] (setting [5]) came out at 20 µM (≈ 7.58 µg/mL).
The like results for `Cc1ccc2nc(Oc3ccc(NC(=O)NC(C)C)cc3)sc2c1` [NZ-358, 1-{4-[(6-methyl-1,3-benzothiazol-2-yl)oxy]phenyl}-3-(propan-2-yl)urea] were, in that order, 20000 nM, no less than 100 µM and 5.8 µM (≈ 1.98 µg/mL).
The like results for `CC(C)NC(=O)Nc1ccc(Oc2nc3ccc(Br)cc3s2)cc1` [NZ-359, 1-{4-[(6-bromo-1,3-benzothiazol-2-yl)oxy]phenyl}-3-(propan-2-yl)urea] were, in that order, 8400 nM, no less than 100 µM and greater than 50 µM.
The like results for `CC(C)NC(=O)Nc1ccc(Oc2nc3ccccc3s2)cc1` [NZ-360, 1-[4-(1,3-benzothiazol-2-yloxy)phenyl]-3-(propan-2-yl)urea] were, in that order, 13300 nM, no less than 100 µM and 4.3 µM (≈ 1.41 µg/mL).
With `CC(C(=O)NCC(O)CO)c1ccc(Oc2nc3ccc(Cl)cc3s2)cc1` (stereo not shown) [NZ-372, 2-{4-[(6-chloro-1,3-benzothiazol-2-yl)oxy]phenyl}-N-(2,3-dihydroxypropyl)propanamide], in data set [1] (read-out: IC50), the IC50 came to 2750 nM. For the same compound, in data set [4], the “concentrations at which not toxic, s. cerevisiae cytotoxicity” value was no less than 100 µM. In addition, the MIC in data set [3] (setting [5]) came out at 4.67 µM (≈ 1.9 µg/mL).
`CC(C)NC(=O)Cc1ccc(Oc2nc3ccc(F)cc3s2)cc1O` [NZ-405, 2-{4-[(6-fluoro-1,3-benzothiazol-2-yl)oxy]-2-hydroxyphenyl}-N-(propan-2-yl)acetamide]: the IC50 in data set [1] (read-out: IC50) was determined as 150 nM. Moreover, the MIC in data set [3] (setting [5]) turned out to be 17.5 µM (≈ 6.31 µg/mL).
Regarding `CC(C)NC(=O)Cc1ccc(O)cc1Oc1nc2ccc(F)cc2s1` [NZ-406, 2-{2-[(6-fluoro-1,3-benzothiazol-2-yl)oxy]-4-hydroxyphenyl}-N-(propan-2-yl)acetamide], the IC50 entry in data set [1] is given as “Not Active”. In data set [3] (50 uM), the “% at 50 uM” value was found to be 46% at 50 uM.
Take `CC(C)NC(=O)Cc1ccc(Oc2nc3cc(F)c(F)cc3s2)cc1O` [NZ-407, 2-{4-[(5,6-difluoro-1,3-benzothiazol-2-yl)oxy]-2-hydroxyphenyl}-N-(propan-2-yl)acetamide]: the IC50 in data set [1] (read-out: IC50) was found to be 110 nM. Moreover, the MIC in data set [3] (setting [5]) is 11.7 µM (≈ 4.43 µg/mL).
The like results for `CNC(=O)C(C)c1ccc(Oc2nc3ccc(F)cc3s2)cc1O` (stereo not shown) [NZ-408, 2-{4-[(6-fluoro-1,3-benzothiazol-2-yl)oxy]-2-hydroxyphenyl}-N-methylpropanamide] were, in that order, 210 nM and 6.5 µM (≈ 2.25 µg/mL).
`C=CCO/N=C(\CCC)C1=C(O)C(C(=O)OC)C(C)(C)CC1=O` (stereo not shown) [alloxydim, reference compound]: the “Mtb AccD6 inhibition” value in data set [1] is reported as “only haloxyfop exhibited Mtb AccD6 inhibition”. For the same compound, the “whole Mycobacterium tuberculosis cell inhibition” value in data set [3] is “none exhibited whole Mycobacterium tuberculosis cell inhibition”.
The like results for `CCCC(=NOCC)C1=C(O)CC(C2CCCSC2)CC1=O` (stereo not shown) [cycloxydim, reference compound] were, in that order, “only haloxyfop exhibited Mtb AccD6 inhibition” and “none exhibited whole Mycobacterium tuberculosis cell inhibition”.
The like results for `CC(Oc1ccc(Oc2ccc(Cl)cc2Cl)cc1)C(=O)O` (stereo not shown) [diclofop, reference compound] were, in that order, “only haloxyfop exhibited Mtb AccD6 inhibition” and “none exhibited whole Mycobacterium tuberculosis cell inhibition”.
In the same order, the values of `CC(Oc1ccc(Oc2ccc(C(F)(F)F)cn2)cc1)C(=O)O` (stereo not shown) [fluazifop, reference compound] are “only haloxyfop exhibited Mtb AccD6 inhibition” and “none exhibited whole Mycobacterium tuberculosis cell inhibition”.
In the case of `CC(C)=NOCCOC(=O)C(C)Oc1ccc(Oc2cnc3cc(Cl)ccc3n2)cc1` (stereo not shown) [propaquizafop, 2-{[(propan-2-ylidene)amino]oxy}ethyl 2-{4-[(6-chloroquinoxalin-2-yl)oxy]phenoxy}propanoate, reference compound], the IC50 in data set [1] (read-out: IC50) turned out to be 2100 nM. For the same compound, the MIC in data set [3] (setting [5]) stood at 1.56 µM (≈ 0.692 µg/mL).
As to `CCC/C(=N\OCC)C1=C(O)CC(CC(C)SCC)CC1=O` (stereo not shown) [sethoxydim, reference compound], the “Mtb AccD6 inhibition” value in data set [1] is given as “only haloxyfop exhibited Mtb AccD6 inhibition”. In addition, the “whole Mycobacterium tuberculosis cell inhibition” value in data set [3] is “none exhibited whole Mycobacterium tuberculosis cell inhibition”.
In the same order, the values of cyhalofop [reference compound] are “only haloxyfop exhibited Mtb AccD6 inhibition” and “none exhibited whole Mycobacterium tuberculosis cell inhibition”.

Broadly, the inhibition is the change of the read-out against control, counted positive when it falls. A word on the IC50: it is the concentration that inhibits the measured activity by half.
